# In patent US20240325298A1, “COMPOSITIONS, METHODS AND SYSTEMS FOR AEROSOL DRUG DELIVERY” (AstraZeneca Pharmaceuticals LP, priority 2021, published 2024):
# What was measured:
# [1] = Particle size distribution by laser diffraction (optical diameter); assay type: physicochemical
# Excerpt: When referred to herein, the term “optical diameter” indicates the size of a particle as measured by the Fraunhofer diffraction mode using a laser diffraction particle size analyzer equipped with a dry powder dispenser (e.g., Sympatec GmbH, Clasthal-Zellerfeld, Germany).
# Suspending particles were manufactured by spray drying an emulsion of PFOB (perfluorooctyl bromide) and water stabilized by DSPC (1,2-Distearoyl-sn-Glycero-3-Phosphocholine). […] The particle size distribution of the suspending particles was determined by laser diffraction.
# Active agent particles formed of budesonide, 16,17-(butylidenebis(oxy))-11,21-dihydroxy-(11-β,16-α)-pregna-1,4-diene-3,20-dione, were formed by micronizing budesonide using a jet mill. The particle size distribution of the budesonide (BD) was determined by laser diffraction.
# [2] = NGI aerosol performance stability data after storage of the MDI (valve down, protected); assay type: physicochemical; conditions: stored valve down and protected at 25° C./60% RH
# [3] = budesonide/formoterol co-suspension in HFO-1234ze(E)
stability of the aPSD ([2]; budesonide/albuterol co-suspension in HFO-1234ze(E)),"stability of the aPSD [2, 3]",Molecule,optical diameter that 50% by volume of the particles are smaller than [1],optical diameter that 90% by volume of the particles are smaller than [1]
–,–,"COc1ccc(CC(C)NCC(O)c2ccc(O)c(NC=O)c2)cc1.O=C(O)/C=C/C(=O)O (racemic) [formoterol fumarate, (±)-2-hydroxy-5-[(1RS)-1-hydroxy-2-[[(1RS)-2-(4-methoxyphenyl)-1-methylethyl]-amino]ethyl]formanilide fumarate]",smaller than 1.6 μm,smaller than 3.9 μm
stable for twelve months,stable for twelve months,"CCCC1O[C@@H]2C[C@H]3[C@@H]4CCC5=CC(=O)C=C[C@]5(C)[C@H]4[C@@H](O)C[C@]3(C)[C@]2(C(=O)CO)O1 (stereo partly drawn) [budesonide, 16,17-(butylidenebis(oxy))-11,21-dihydroxy-(11-β,16-α)-pregna-1,4-diene-3,20-dione]",–,–
–,–,albuterol sulfate,smaller than 1.5 μm,smaller than 3.3 μm
–,stable for twelve months,"CCCCCCCCCCCCCCCCCC(=O)OC[C@H](COP(=O)([O-])OCC[N+](C)(C)C)OC(=O)CCCCCCCCCCCCCCCCC [DSPC, 1,2-Distearoyl-sn-Glycero-3-Phosphocholine]",–,–
–,–,"C[N+]1(C)CCC(OC(=O)C(O)(c2ccccc2)C2CCCC2)C1.[Br-] (stereo not drawn) [glycopyrrolate, Pyrrolidinium, 3-((cyclopentylhydroxyphenylacetyl)oxy)-1,1-dimethyl-, bromide]",smaller than 2.1 μm,smaller than 5 μm
